Source: US20240335443A1, “IMIDAZOLOPYRIDAZINE OR PYRAZOLOPYRIMIDINE COMPOUNDS AND COMPOSITIONS” (Anrui Biomedical Technology (Guangzhou) Co., Ltd., priority 2021, published 2024)
Where two headings read alike, the source gives them in different places.

Legend:
[1] = molecular target: T1, N-terminal His-tagged TYK2 pseudokinase domain (Homo sapiens, UniProt P29597); assay: TYK2 JH2 domain SPA binding assay; conditions: displacement of H3 probe (20 nM), 30 min room temperature; class symbols
T1 construct: the N-terminal His-tagged TYK2 pseudokinase domain; His (N); purchased Pharmaron
T1 sequence (P29597 589-875 limits assumed): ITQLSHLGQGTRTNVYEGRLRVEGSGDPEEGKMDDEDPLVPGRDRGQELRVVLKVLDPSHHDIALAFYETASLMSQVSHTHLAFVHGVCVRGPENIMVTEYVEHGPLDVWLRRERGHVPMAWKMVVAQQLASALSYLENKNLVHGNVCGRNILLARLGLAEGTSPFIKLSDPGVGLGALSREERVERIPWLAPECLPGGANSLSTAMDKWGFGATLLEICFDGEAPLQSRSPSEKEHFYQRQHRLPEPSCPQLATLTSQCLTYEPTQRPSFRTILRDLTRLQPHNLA
Protocol: TYK2 JH2 Domain Binding Assay
After incubating at room temperature for 30 min, the inhibition was calculated by the displacement of [3H] 3 binding as determined by scintillation counting. Dose-response curves were generated to determine the concentration required to inhibit H3 probe binding by […] (IC50).

[2] = system: IL-23 induced STAT3 in HEK-Blue™ IL-23 cells; assay: IL-23 induced STAT3 QUANTI-Blue reporter assay in HEK-Blue IL-23 cells; format: cell-based; conditions: IL-23 0.1 ng/mL, SEAP levels, class symbols, read-out: IL23 reporter assay (IC50 nM)
Protocol: Biological Example 2. IL-23 Induced STAT3 QUANTI-Blue in HEK-Blue™ IL-23 Cells
HEK-Blue™ IL-23 cells were prepared at 2×10^5 cells/ml for adding 5000 cell/well and incubate plates containing compounds+cells for 1 hour at 37° C. Prepare IL-23 (treatment at final conc. 0.1 ng/mL) during incubation and add 2 ul per well of prepared cytokine in media to appropriate wells. The plate is incubated for overnight at 37° C. The next day, QUANTI-Blue solution is prepared. 18 ul of QUANTI-Blue solution per well is added into a new 384-well clear flat bottom plate, then add 2 ul of induced and treated HEK-Blue cell supernatant from overnight plate. Incubate the plate at 37° C. for 2 hours and determine SEAP levels.

[3] = HEK-Blue IL-23, HEK-Blue IL-23 cells

IC50 [1] [nM] | Compound | IC50 [2, 3] [nM] | IC50 ([2]; HEK-Blue IL-23 cells) [nM]
10 to 100 | CNc1cc(Nc2cccn(-c3ccccn3)c2=O)nn2c(C(=O)NC(C)c3ncco3)cnc12 (racemic) [Compound 34] | 10 to 100 | 
10 to 100 | CNc1cc(Nc2cccn(-c3nn(C)cc3F)c2=O)nn2c(C(=O)N[C@@H]3C[C@H]4CCO[C@H]43)cnc12 [Compound 54] | < 10 | 
< 10 | CNc1cc(Nc2cccc3c2OCCC3)nn2c(C(=O)N[C@@H]3C[C@H]4CCO[C@H]43)cnc12 (racemic) [Compound 25] | < 10 | 
10 to 100 | CNc1cc(Nc2cccn(C3CC4CCOC43)c2=O)nn2c(C(=O)N[C@@H]3C[C@@H]3F)cnc12 (single isomer, unassigned) [Compound 105d] |  | < 10
10 to 100 | CNc1cc(Nc2cccn([C@@H]3C[C@H]4CCO[C@H]43)c2=O)nn2c(C(=O)NC3CCC4CCOC43)cnc12 (single isomer, unassigned) [Compound 95a] |  | < 10
< 10 | CNc1cc(Nc2cccc3c2OCCC3)nc2c(C(=O)NC(C)c3ncco3)cnn12 (single isomer, unassigned) [Compound 23b] |  | 10 to 100
100 to 1000 | CNc1cc(Nc2cccn(CC3CCCO3)c2=O)nn2c(C(=O)N[C@@H]3C[C@H]4CCO[C@H]43)cnc12 (single isomer, unassigned) [Compound 62a] | 10 to 100 | 
> 1000 | CNc1cc(Nc2cccn(-c3ccn(C)n3)c2=O)nn2c(C(=O)NC(C)c3ncco3)cnc12 (single isomer, unassigned) [Compound 49b] |  | ≥ 1000
< 10 | [2H]C([2H])([2H])Nc1cc(Nc2cccc(N3CCCC3=O)n2)nn2c(C(=O)NC3C[C@H]4CCOC34)cnc12 (mixture of isomers) [Compound 31] | < 10 | 
10 to 100 | CNc1cc(Nc2cccn(-c3ncccc3F)c2=O)nn2c(C(=O)N[C@@H]3C[C@H]4CCO[C@H]43)cnc12 [Compound 1, N-((1R,5S,7R)-2-oxabicyclo[3.2.0]heptan-7-yl)-6-((3′-fluoro-2-oxo-2H-[1,2′-bipyridin]-3-yl)amino)-8-(methylamino)imidazo[1,2-b]pyridazine-3-carboxamide] | < 10 | 
10 to 100 | CNc1cc(Nc2cccc(C)n2)nc2c(C(=O)NC3CCn4ncnc43)cnn12 (racemic) [Compound 33] | < 10 | 
10 to 100 | [2H]C([2H])([2H])Nc1cc(Nc2cccn(C3CC4(CCOC4)C3)c2=O)nn2c(C(=O)N[C@@H]3C[C@H]4CCO[C@H]43)cnc12 (single isomer, unassigned) [Compound 96a] | 10 to 100 | 
10 to 100 | [2H]C([2H])([2H])Nc1cc(Nc2cccn([C@H]3CC[C@@H](OC([2H])([2H])[2H])CC3)c2=O)nn2c(C(=O)N[C@@H]3C[C@@H]3F)cnc12 [Compound 72] | < 10 | 
> 1000 | CNc1cc(Nc2cccc3c2OCCC3)nn2c(C(=O)NC(C)c3ncco3)cnc12 (single isomer, unassigned) [Compound 22a] |  | ≥ 1000
10 to 100 | CNc1cc(Nc2cccn(C3CC4CCOC43)c2=O)nn2c(C(=O)N[C@@H]3C[C@@H]3F)cnc12 (single isomer, unassigned) [Compound 105c] |  | 10 to 100
10 to 100 | CNc1cc(Nc2cccn([C@H]3CC[C@@H](OC)CC3)c2=O)nn2c(C(=O)N[C@@H]3C[C@@H]3F)cnc12 [Compound 70] | 10 to 100 | 
10 to 100 | [2H]C([2H])([2H])Nc1cc(Nc2cccn(C3CC4(CCOC4)C3)c2=O)nc2c(C(=O)N[C@@H]3C[C@H]4CCO[C@H]43)cnn12 (single isomer, unassigned) [Compound 97a] | 10 to 100 | 
10 to 100 | [2H]C([2H])([2H])Nc1cc(Nc2cccn(C3CC4(CCOC4)C3)c2=O)nn2c(C(=O)N[C@@H]3C[C@@H]3F)cnc12 (single isomer, unassigned) [Compound 102b] |  | 10 to 100
10 to 100 | CNc1cc(Nc2cccc(C)n2)nc2c(C(=O)NC3CCn4ccnc43)cnn12 (racemic) [Compound 32] | < 10 | 
10 to 100 | CNc1cc(Nc2cccn([C@H]3C[C@H](F)C3)c2=O)nn2c(C(=O)NC3CCn4ncnc43)cnc12 (mixture of isomers) [Compound 91] | 10 to 100 | 
10 to 100 | [2H]C([2H])([2H])Nc1cc(Nc2cccn(C3CCCC4(COC4)C3)c2=O)nn2c(C(=O)N[C@@H]3C[C@H]4CCO[C@H]43)cnc12 (single isomer, unassigned) [Compound 68a] | 10 to 100 | 

IC50 [1] [nM] | Compound | IC50 [2, 3] [nM] | IC50 ([2]; HEK-Blue IL-23 cells) [nM]
10 to 100 | [2H]C([2H])([2H])Nc1cc(Nc2cccn([C@H]3CC[C@@H](OC([2H])([2H])[2H])CC3)c2=O)nn2c(C(=O)N[C@@H]3C[C@H]4CCO[C@H]43)cnc12 [Compound 64] | 10 to 100 | 
10 to 100 | [2H]C([2H])([2H])Nc1cc(Nc2cccn(-c3ccccn3)c2=O)nc2c(C(=O)NC(C)c3ncco3)cnn12 (racemic) [Compound 35] | 10 to 100 | 
10 to 100 | CNc1cc(Nc2cccn([C@H]3CCCOC3)c2=O)nn2c(C(=O)N[C@@H]3C[C@H]4CCO[C@H]43)cnc12 [Compound 65] | < 10 | 
10 to 100 | [2H]C([2H])([2H])Nc1cc(Nc2cccn(C3CC4(CCOC4)C3)c2=O)nn2c(C(=O)N[C@@H]3C[C@@H]3F)cnc12 (single isomer, unassigned) [Compound 102a] | 10 to 100 | 
10 to 100 | CNc1cc(Nc2cccn(-c3ccccc3)c2=O)nn2c(C(=O)NC3CCn4ncnc43)cnc12 (racemic) [Compound 47] | < 10 | 
10 to 100 | [2H]C([2H])([2H])O[C@H]1C[C@H](n2cccc(Nc3cc(NC)c4ncc(C(=O)N[C@@H]5C[C@H]6CCO[C@H]65)n4n3)c2=O)C1 [Compound 83] | 10 to 100 | 
10 to 100 | CNc1cc(Nc2cccn(-c3ccccn3)c2=O)nc2c(C(=O)N[C@@H]3C[C@H]4CCO[C@H]43)cnn12 (racemic) [Compound 43] | 10 to 100 | 
10 to 100 | CNc1cc(Nc2cccn([C@H]3C[C@@H](OC)C3)c2=O)nn2c(C(=O)N[C@@H]3C[C@H]4CCO[C@H]43)cnc12 [Compound 85] | 10 to 100 | 
10 to 100 | [2H]C([2H])([2H])Nc1cc(Nc2cccn(C3CC4(CCCO4)C3)c2=O)nn2c(C(=O)N[C@@H]3C[C@H]4CCO[C@H]43)cnc12 (single isomer, unassigned) [Compound 98a] | 10 to 100 | 
10 to 100 | [2H]C([2H])([2H])OC1(C)CC(n2cccc(Nc3cc(NC)c4ncc(C(=O)N[C@@H]5C[C@H]6CCO[C@H]65)n4n3)c2=O)C1 (single isomer, unassigned) [Compound 93a] | 10 to 100 | 
100 to 1000 | [2H]C([2H])([2H])Nc1cc(Nc2cccn(C3CC4(CCOC4)C3)c2=O)nc2c(C(=O)N[C@@H]3C[C@@H]3F)cnn12 (single isomer, unassigned) [Compound 103b] |  | 10 to 100
< 10 | CNc1cc(Nc2cccn([C@H]3CC[C@H](OC)CC3)c2=O)nn2c(C(=O)N[C@@H]3C[C@H]4CCO[C@H]43)cnc12 [Compound 63] | < 10 | 
100 to 1000 | CNc1cc(Nc2cccc3c2OCCC3)nc2c(C(=O)NC(C)c3ncco3)cnn12 (single isomer, unassigned) [Compound 23a] |  | ≥ 1000
< 10 | CNc1cc(Nc2cccn(-c3ccccn3)c2=O)nn2c(C(=O)NC3CCc4scnc43)cnc12 (stereo not shown) [Compound 9, N-(5,6-dihydro-4H-cyclopenta[d]thiazol-4-yl)-8-(methylamino)-6-((2-oxo-2H-[1,2′-bipyridin]-3-yl)amino)imidazo[1,2-b]pyridazine-3-carboxamide] | < 10 | 
> 1000 | CNc1cc(Nc2cccn(-c3ccccn3)c2=O)nn2c(C(=O)NC3CCC4CCOC43)cnc12 (racemic) [Compound 10b, N-(hexahydro-2H-cyclopenta[b]furan-6-yl)-8-(methylamino)-6-((2-oxo-2H-[1,2′-bipyridin]-3-yl)amino)imidazo[1,2-b]pyridazine-3-carboxamide] |  | ≥ 1000
10 to 100 | CNc1cc(Nc2cccn(C3CCC4(CC3)COC4)c2=O)nn2c(C(=O)N[C@@H]3C[C@@H]3F)cnc12 [Compound 73] | < 10 | 
10 to 100 | [2H]C([2H])([2H])Nc1cc(Nc2cccn([C@H]3C[C@H](OC(F)(F)F)C3)c2=O)nn2c(C(=O)N[C@@H]3C[C@H]4CCO[C@H]43)cnc12 [Compound 89] | 10 to 100 | 
10 to 100 | [2H]C([2H])([2H])O[C@H]1C[C@@H](n2cccc(Nc3cc(NC)c4ncc(C(=O)N[C@@H]5C[C@H]6CCO[C@H]65)n4n3)c2=O)C1 [Compound 86] | 10 to 100 | 
10 to 100 | [2H]C([2H])([2H])Nc1cc(Nc2cccn(C3CC4OCCC43)c2=O)nn2c(C(=O)N[C@@H]3C[C@H]4CCO[C@H]43)cnc12 (single isomer, unassigned) [Compound 94b] |  | 10 to 100
10 to 100 | CNc1cc(Nc2cccn(C3C[C@H]4CC[C@@H](C3)O4)c2=O)nn2c(C(=O)N[C@@H]3C[C@@H]3F)cnc12 (single isomer, unassigned) [Compound 79a] | 10 to 100 | 
